What is called DC50 is the concentration giving 50% degradation.

Each structure is given as a SMILES string.

One assay deals with STAT3 (Homo sapiens, UniProt P40763). Put plainly: Quantitation of STAT3 degradation in A549 cells by Western blot. The settings on record: 24 hours, tested up to 30 μM or 10 μM, read-out: A549 DC50. The arrangement: expressed in transfected cells; host or cells: A549. The class given is cell-based. The procedure: Degradation of total cellular STAT3 protein in A549 was quantitatively measured using SDS-PAGE and Western blot analysis. A549 cells (5×10^5 cells/well, 2 mL) were seeded into 6-well plates and were incubated in the incubator under 5% CO2 overnight to reach ˜80% confluency. The next day, the culture medium was changed with 1 ml fresh media. Then, 1 mL of media containing 2× compound solution was added into the well to make the final concentration of 30 μM, 10 μM, 3 μM, 1 μM, 0.3 μM and 0 μM (DMSO). The media was thoroughly mixed and incubated for 24 hours at 37° C. under 5% CO2. Then, the culture media was removed from the assay plates and the cells were washed with ice-cold PBS twice. To prepare cell lysates, 200 ul pre-chilled RIPA lysis buffer (Boston BioProducts BP-115D) with protease/phosphatase inhibitor (Roche 05892791001/Roche 04906837001) was added directly into the well to lyse the cells for 20 minutes on ice. The cell lysates were then transferred to centrifuge tubes. Insoluble part of lysates was removed by centrifuging the lysates at 13000 rpm for 20 minutes. The supernatant was then collected and mixed with 5× loading buffer (Beyotime Bio P0015) to make the final samples for SDS-PAGE analysis. The samples were heated at 100° C. for 10 minutes and cool to room temperature before centrifuging at 13000 rpm for 20 minutes. To analyze the samples by SDS-PAGE, 10 ul samples were loaded onto SDS-PAGE gel (Novex, WG1403BOX) and the SDS-PAGE gel was run for 20 minutes at 80 V, then at 120 V for 1.5 hours. The SDS-PAGE gel was then transferred to nitrocellulose membrane using the wet-transfer method at 250 mA for 1.5 hours. The membrane was then blocked with LI-COR blocking buffer (LI-COR, 927-50000) for 1 hour and was probed with primary antibody (mouse anti-STAT3 (124H6) (CST #91395) 1:2000 or mouse anti-beta-Actin (8H10D10) (CST #3700) 1:10000) at 4° C. overnight. The membrane was then washed three times with TBST buffer and probed with secondary antibody (anti-mouse IgG (LI-COR, 926-68070), 1:5000) for 1 hour at room temperature. The membrane was then scanned on a LI-COR Odyssey instrument and was quantified using Image Studio Version 5.2. Concentration at 50% degradation (DC50) was calculated by fitting dose dependent degradation data using a sigmoidal equation using GraphPad Prism Version 8.0.
Sequence of STAT3 (P40763 whole entry): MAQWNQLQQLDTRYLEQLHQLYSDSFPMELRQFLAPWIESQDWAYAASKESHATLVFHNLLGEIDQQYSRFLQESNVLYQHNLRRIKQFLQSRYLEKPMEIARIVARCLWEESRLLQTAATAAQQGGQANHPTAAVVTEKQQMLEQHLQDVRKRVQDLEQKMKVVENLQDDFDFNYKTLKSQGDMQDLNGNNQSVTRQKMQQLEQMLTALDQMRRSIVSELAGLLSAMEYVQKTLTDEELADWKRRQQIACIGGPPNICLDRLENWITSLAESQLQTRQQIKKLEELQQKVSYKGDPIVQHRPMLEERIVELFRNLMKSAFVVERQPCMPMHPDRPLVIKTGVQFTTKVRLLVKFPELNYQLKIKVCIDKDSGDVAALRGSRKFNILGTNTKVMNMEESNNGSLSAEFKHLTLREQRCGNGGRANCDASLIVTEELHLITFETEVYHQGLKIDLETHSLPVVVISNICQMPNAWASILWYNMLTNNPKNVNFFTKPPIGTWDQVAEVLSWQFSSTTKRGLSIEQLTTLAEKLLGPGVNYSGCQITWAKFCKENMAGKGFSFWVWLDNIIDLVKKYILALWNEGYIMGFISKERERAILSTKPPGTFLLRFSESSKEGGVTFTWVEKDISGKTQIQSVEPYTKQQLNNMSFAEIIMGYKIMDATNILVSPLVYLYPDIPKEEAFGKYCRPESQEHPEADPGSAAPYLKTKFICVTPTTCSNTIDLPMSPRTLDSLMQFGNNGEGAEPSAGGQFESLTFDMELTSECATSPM
In general terms: In western blotting, separated proteins are transferred to a membrane and probed.
Regarding `C/C(=C\C(=O)N[C@H]1CCc2cccc3c2N(C1=O)[C@H](C(=O)N[C@@H](CCC(N)=O)[C@@H](C)OCc1ccc(CCOCC(=O)N[C@H](C(=O)N2C[C@H](O)C[C@H]2C(=O)NCc2ccc(-c4scnc4C)cc2)C(C)(C)C)cc1)C3)c1ccc(C(F)(F)P(=O)(OCOC(=O)C(C)(C)C)OCOC(=O)C(C)(C)C)cc1` [Compound I-13], the DC50 was < 30 µM.

As for `C/C(=C\C(=O)N[C@H]1CCc2cccc3c2N(C1=O)[C@H](C(=O)N[C@@H](CCC(N)=O)[C@@H](C)OCc1ccc(CCCOCCOCCOCCOCCOc2cc(-c4scnc4C)ccc2CNC(=O)[C@@H]2C[C@@H](O)CN2C(=O)[C@@H](NC(=O)C2(F)CC2)C(C)(C)C)cc1)C3)c1ccc(C(F)(F)P(=O)(OCOC(=O)C(C)(C)C)OCOC(=O)C(C)(C)C)cc1` [Compound I-16], the DC50 is > 30 µM.

The assay is the same for the next values; noted with them: read-out: A549 DC50, 24 hours, tested up to 30 μM or 10 μM.
For `CCCC[C@H](NC(=O)/C=C(\C)c1ccc(C(F)(F)P(=O)(OCOC(=O)C(C)(C)C)OCOC(=O)C(C)(C)C)cc1)C(=O)N1C[C@H]2C[C@H]2[C@H]1C(=O)N[C@@H](CCC(N)=O)[C@@H](C)OCc1ccc(CCCNC(=O)COCCOCCOCCCc2ccc3c(c2)n(C)c(=O)n3C2CCC(=O)NC2=O)cc1` (stereo partly drawn) [Compound I-59, [([4-[(1E)-1-[[(2S)-1-[(1R,2S,5S)-2-[[(3S,4R)-1-carbamoyl-4-[[4-(3-[2-[2-(2-[3-[1-(2,6-dioxopiperidin-3-yl)-3-methyl-2-oxo-1,3-benzodiazol-5-yl]propoxy]ethoxy)ethoxy]acetamido]propyl)phenyl]methoxy]pentan-3-yl]carbamoyl]-3-azabicyclo[3.1.0]hexan-3-yl]-1-oxohexan-2-yl]carbamoyl]prop-1-en-2-yl]phenyl]difluoromethyl([(2,2-dimethylpropanoyl)oxy]methoxy)phosphoryl)oxy]methyl 2,2-dimethylpropanoate], the DC50 is > 30 µM.

Turning to `Cn1c(=O)n(C2CCC(=O)NC2=O)c2cccc(CCCCC(=O)N3CC[C@H]4CC[C@@H](C(=O)N[C@@H](CCC(N)=O)C(=O)NC(c5ccccc5)c5ccccc5)N4C(=O)[C@@H](NC(=O)c4cc5cc(C(=O)P(=O)(O)O)ccc5[nH]4)C3)c21` (stereo partly drawn) [Compound I-88, 2-[[(5S,8S,10aR)-8-[[(1S)-3-carbamoyl-1-(diphenylmethylcarbamoyl)propyl]carbamoyl]-3-[5-[1-(2,6-dioxopiperidin-3-yl)-3-methyl-2-oxo-1,3-benzodiazol-4-yl]pentanoyl]-6-oxo-octahydropyrrolo[1,2-a][1,5]diazocin-5-yl]carbamoyl]-1H-indole-5-carbonylphosphonic acid], the DC50 is > 30 µM.

With `C/C(=C\C(=O)N[C@H]1CCc2cccc3c2N(C1=O)[C@H](C(=O)N[C@@H](CCC(N)=O)[C@@H](C)OCc1ccc(CCOCCCc2cccc4c2n(C)c(=O)n4C2CCC(=O)NC2=O)cc1)C3)c1ccc(C(F)(F)P(=O)(OCOC(=O)C(C)(C)C)OCOC(=O)C(C)(C)C)cc1` (stereo partly drawn) [Compound I-9, [([4-[(1E)-1-[[(2S,11S)-2-[[(3S,4R)-1-carbamoyl-4-[[4-(2-[3-[1-(2,6-dioxopiperidin-3-yl)-3-methyl-2-oxo-1,3-benzodiazol-4-yl]propoxy]ethyl)phenyl]methoxy]pentan-3-yl]carbamoyl]-12-oxo-1-azatricyclo[6.4.1.0^[4,13]]trideca-4(13),5,7-trien-11-yl]carbamoyl]prop-1-en-2-yl]phenyl]difluoromethyl([(2,2-dimethylpropanoyl)oxy]methoxy)phosphoryl)oxy]methyl 2,2-dimethylpropanoate], the DC50 was > 30 µM.

With `Cc1ncsc1-c1ccc(CNC(=O)C2C[C@@H](O)CN2C(=O)[C@@H](NC(=O)CCCc2ccc(CO[C@H](C)[C@H](CCC(N)=O)NC(=O)[C@@H]3Cc4cccc5c4N3C(=O)[C@@H](NC(=O)c3cc4cc(C(=O)P(=O)(O)O)ccc4[nH]3)CC5)cc2)C(C)(C)C)cc1` (stereo partly shown) [Compound I-101], the DC50 is < 30 µM.

For the molecule `Cn1c(=O)n(C2CCC(=O)NC2=O)c2ccc(C#CCCCCCC(=O)N3CC[C@H]4CC[C@@H](C(=O)N[C@@H](CCC(N)=O)C(=O)NC(c5ccccc5)c5ccccc5)N4C(=O)[C@@H](NC(=O)c4cc5cc(C(=O)P(=O)(O)O)ccc5[nH]4)C3)cc21` (stereo partly drawn) [Compound I-104, 2-[[(5S,8S,10aR)-8-[[(1S)-3-carbamoyl-1-(diphenylmethylcarbamoyl)propyl]carbamoyl]-3-[8-[1-(2,6-dioxopiperidin-3-yl)-3-methyl-2-oxo-1,3-benzodiazol-5-yl]oct-7-ynoyl]-6-oxo-octahydropyrrolo[1,2-a][1,5]diazocin-5-yl]carbamoyl]-1H-indole-5-carbonylphosphonic acid], the DC50 is < 30 µM.

With `C/C(=C\C(=O)N[C@H]1CCc2cccc3c2N(C1=O)[C@H](C(=O)N[C@@H](CCC(N)=O)[C@@H](C)OCc1ccc(CCCCC(=O)N[C@H](C(=O)N2C[C@@H](O)C[C@H]2C(=O)NCc2ccc(-c4scnc4C)cc2)C(C)(C)C)cc1)C3)c1ccc(C(F)(F)P(=O)(OCOC(=O)C(C)(C)C)OCOC(=O)C(C)(C)C)cc1` [Compound I-2], the DC50 is > 30 µM.

With `C/C(=C\C(=O)N[C@H]1CCc2cccc3c2N(C1=O)[C@H](C(=O)N[C@@H](CCC(N)=O)[C@@H](C)OCc1ccc(CCOCCOCCOCCOCC(=O)N[C@H](C(=O)N2C[C@H](O)C[C@H]2C(=O)NCc2ccc(-c4scnc4C)cc2)C(C)(C)C)cc1)C3)c1ccc(C(F)(F)P(=O)(OCOC(=O)C(C)(C)C)OCOC(=O)C(C)(C)C)cc1` [Compound I-27], the DC50 is > 10 µM.

In the case of `C/C(=C\C(=O)N[C@H]1CCc2cccc3c2N(C1=O)[C@H](C(=O)N[C@@H](CCC(N)=O)[C@@H](C)OCc1ccc(CCCCC(=O)N[C@H](C(=O)N2C[C@H](O)C[C@H]2C(=O)NCc2ccc(-c4scnc4C)cc2)C(C)(C)C)cc1)C3)c1ccc(C(F)(F)P(=O)(OCOC(=O)C(C)(C)C)OCOC(=O)C(C)(C)C)cc1` [Compound I-8, (2S,4R)-1-[(2S)-2-[5-[4-([[(2R,3S)-3-[[(2S,11S)-11-amino-12-oxo-1-azatricyclo[6.4.1.0^[4,13]]trideca-4(13),5,7-trien-2-l]formamido]-5-carbamoylpentan-2-yl]oxy]methyl)phenyl]pentanamido]-3,3-dimethylbutanoyl]-4-hydroxy-N-[[4-(4-methyl-1,3-thiazol-5-yl)phenyl]methyl]pyrrolidine-2-carboxamide], the DC50 is < 30 µM.

On to `Cc1ncsc1-c1ccc(CNC(=O)[C@@H]2C[C@@H](O)CN2C(=O)[C@@H](NC(=O)CCC#Cc2ccc(CO[C@H](C)[C@H](CCC(N)=O)NC(=O)[C@@H]3Cc4cccc5c4N3C(=O)[C@@H](NC(=O)c3cc4cc(C(=O)P(=O)(O)O)ccc4[nH]3)CC5)cc2)C(C)(C)C)cc1` [Compound I-96, diammonium 2-[[(2S,11S)-2-[[(3S,4R)-1-carbamoyl-4-[[4-(4-[[(2S)-1-[(2S,4R)-4-hydroxy-2-([[4-(4-methyl-1,3-thiazol-5-yl)phenyl]methyl]carbamoyl)pyrrolidin-1-yl]-3,3-dimethyl-1-oxobutan-2-yl]carbamoyl]but-1-yn-1-yl)phenyl]methoxy]pentan-3-yl]carbamoyl]-12-oxo-1-azatricyclo[6.4.1.0^[4,13]]trideca-4(13),5,7-trien-11-yl]carbamoyl]-1H-indole-5-carbonylphosphonate], for which the DC50 is > 30 µM.

With `C/C(=C\C(=O)N[C@H]1CCc2cccc3c2N(C1=O)[C@H](C(=O)NC(CCC(N)=O)[C@@H](C)OCc1ccc(CCCOCCOCC(=O)N[C@H](C(=O)N2C[C@H](O)C[C@H]2C(=O)NCc2ccc(-c4scnc4C)cc2)C(C)(C)C)cc1)C3)c1ccc(C(F)(F)P(=O)(OCOC(=O)C(C)(C)C)OCOC(=O)C(C)(C)C)cc1` (stereo partly shown) [Compound I-37], the DC50 is > 10 µM.

On to `C/C(=C\C(=O)N[C@H]1CCc2cccc3c2N(C1=O)[C@H](C(=O)NC(CCC(N)=O)[C@@H](C)OCc1ccc(CCCOCC(=O)N[C@H](C(=O)N2C[C@H](O)CC2C(=O)NCc2ccc(-c4scnc4C)cc2)C(C)(C)C)cc1)C3)c1ccc(C(F)(F)P(=O)(OCOC(=O)C(C)(C)C)OCOC(=O)C(C)(C)C)cc1` (stereo partly shown) [Compound I-35], for which the DC50 was < 30 µM.

The values above are taken from patent US12077555B2, “STAT degraders and uses thereof” (Kymera Therapeutics, Inc., priority 2019, dated 2024).
